From patent US20170014375A1, “PHARMACEUTICAL COMPOSITION COMPRISING EFFECTIVE DOSE OF POMIFERIN FOR TREATING CANCERS” (Macau University of Science and Technology, priority 2015, published 2017)

Experiments:
[1] = system: HCT-116 p53+/+ isogenic colon cancer cells; assay: MTT cytotoxicity assay, HCT116 p53+/+; format: cell-based; settings: Homo sapiens, HCT-116, 72 h, HCT116 p53+/+ (wild-type), 3 days, read-out: Means of IC50
Description: The test compound of pomiferin is dissolved in DMSO at a final concentration of 100 mmol/L and stored at −20° C. Cytotoxicity is assessed using the 3-(4,5-dimethylthiazol-2-yl)-2,5-diphenyltetrazolium bromide assay as previously described^29. 4000 of drug-resistant HCT-116 p53+/+, HCT-116 p53−/− and HCT-116 p53−/− isogenic colon cancer cells are seeded on 96-well plates per well. After overnight pre-incubation, the cells are exposed to different concentrations of pomiferin (namely […]) for 3 days. Subsequently, 10 μL of MTT reagents is added to each well and incubated at 37° C. for 4 hours, followed by the addition of 100 μL solubilization buffer (10% SDS in 0.01 mol/L HCl) and overnight incubation. Absorbance at 585 nm is determined from each well on the following day. The percentage of cell viability is calculated using the following formula: Cell viability (%)=Cells numbertreated/Cells numberDMSO control×100. Data is obtained from three independent experiments.

[2] = system: H1299 (human lung cancer) cells; assay: MTT cytotoxicity assay, H1299; format: cell-based; settings: NCI-H1299, 72 h, 3 days, read-out: Means of IC50
Description: (§1) Pomiferin is dissolved in DMSO at a final concentration of 100 mmol/L and stored at −20° C. Cytotoxicity is assessed using the 3-(4,5-dimethylthiazol-2-yl)-2,5-diphenyltetrazolium bromide assay. 4000-8000 HeLa (human cervical cancer), MCF-7 (human breast cancer), HepG2 and Hep3B (human liver cancer), H1299 and A549 (human lung cancer), LNCap (human prostate cancer) and LLC-1 (mouse Lewis lung carcinoma) cells are seeded on 96-well plates per well. After overnight pre-incubation, the cells are exposed to different concentrations of pomiferin ([…]) for 3 days. Subsequently, 10 μL of MTT reagents is added to each well and incubated at 37° C. for 4 hours followed by the addition of 100 μL solubilization buffer (10% SDS in 0.01 mol/L HCl) and overnight incubation. Absorbance at 585 nm is determined from each well the next day. The percentage of cell viability is calculated using the following formula: Cell viability (%)=Cells number treated/Cells number DMSO control×100. Data are obtained from three independent experiments.

[3] = system: HepG2 (human liver cancer) cells; assay: MTT cytotoxicity assay, HepG2; format: cell-based; settings: 72 h, 3 days, read-out: Means of IC50
Description: as §1

[4] = system: Hep3B, HepG2, H1299, MCF-7, A549 cancer cells and normal human hepatocyte (LO2); assay: Endogenous LC3 puncta immunofluorescence in cancer and normal cells; format: cell-based; settings: 10 μM, FIG. 2
Description: The detection of endogenous LC3 puncta formation is conducted using immunofluorescence staining method as described below. In brief, pomiferin-treated cancer cells (Hep3B, HepG2, H1299, MCF-7 and A549) or normal human hepatocyte (LO2) on cover slips are fixed with 4% paraformaldehyde (Sigma) for 20 min at room temperature and then rinsed with PBS. Immerse coverslips in methanol at room temperature for 2 min. After ishing with PBS, the cells are then incubated with anti-LC3 (1:200) in TBST (100 mM Tris HCl, pH 7.5, 150 mM NaCl, 0.05% Tween 20 and 5% BSA) overnight at 4. […] The coverslips are then mounted with FluorSave™ mounting media (Calbiochem, San Diego, Calif., USA) for fluorescence imaging and localization of LC3 autophagosomes are captured under the API Delta Vision Live-cell Imaging System (Applied Precision Inc., GE Healthcare Company, Washington, USA). To quantify autophagy, guidelines are followed to monitor autophagy^20, the percentage of cells with punctuate LC3 immunofluorescence staining is calculated by counting the number of the cells showing the punctuate pattern of LC3 fluorescence (>10 dots/cell) in immunofluorescence positive cells over the total number of cells in the same field. A minimum of 1000 cells from randomly selected fields are scored.

Bax-Bak DKO MEFs = assay: Annexin V/PI flow cytometry cell death, Bax-Bak DKO MEFs; format: cell-based, mouse; settings: 24 h
Description: Cell death is measured using an annexin V staining kit (BD Biosciences, San Jose, Calif., USA). Briefly, Bax-Bak wild-type and Bax-Bak DKO MEFs are treated with the 5 μM pomiferin for 24 h. Cells are then harvested and analysed by multiparametric flow cytometry using FITC-Annexin V and Propidium iodide staining (BD Biosciences, San Jose, Calif., USA) according to the manufacturer's instructions. Flow cytometry is then carried out using a FACSCalibur flow cytometer (BD Biosciences, San Jose, Calif., USA). Data acquisition and analysis is performed with CellQuest (BD Biosciences, San Jose, Calif., USA). Data are obtained from three independent experiments. Cell death is measured using an annexin V staining kit (BD Biosciences, San Jose, Calif., USA). Briefly, Bax-Bak DKO MEFs are treated with the 5 μM pomiferin in the presence or absence of 5 mM autophagic inhibitor 3-MA for 24 h. Cells are then harvested and analysed by multiparametric flow cytometry using FITC-Annexin V and Propidium iodide staining (BD Biosciences, San Jose, Calif., USA) according to the manufacturer's instructions. Flow cytometry is then carried out using a FACSCalibur flow cytometer (BD Biosciences, San Jose, Calif., USA). Data acquisition and analysis is performed with CellQuest (BD Biosciences, San Jose, Calif., USA). Data are obtained from three independent experiments.

HeLa cancer cells = assay: Western blot of autophagic marker LC3-II conversion; format: cell-based, human; settings: 0-15 μM, FIG. 1A
Description: After pomiferin treatments in the presence or absence of lysosomal inhibitor 50 nM of Bafilomycin A1 or autophagy inhibitor 5 mM 3-MA, HeLa cancer cells are harvested and lysed in RIPA buffer (Cell Signaling Technologies Inc., Beverly, Mass.). The cell lysates are then resolved by SDS-PAGE. After electrophoresis, the proteins from SDS-PAGE are transferred to nitrocellulose membrane which is then blocked with 5% non-fat dried milk for 60 minutes. The membrane is then incubated with LC3 primary antibodies (1:1000) in TBST overnight at 4° C. After that, the membrane is further incubated with HRP-conjugated secondary antibodies for 60 minutes. Finally, protein bands are visualized by using the ECL Western Blotting Detection Reagents (Invitrogen, Paisley, Scotland, UK).

## CC(C)=CCc1c2c(c3occ(-c4ccc(O)c(O)c4)c(=O)c3c1O)C=CC(C)(C)O2 [pomiferin]
[1]
  IC50: 6.51 µM
[2]
  IC50: 16.3 µM
[3]
  IC50: 13.6 µM
[4]
  TRITC-LC3 puncta formation: induces TRITC-LC3 puncta formation in all tested cancer and normal cells
Bax-Bak DKO MEFs; 5 μM pomiferin alone, Bax-Bak DKO cells, FIG. 8B
  cell death (in words): significantly induced cell death
Bax-Bak DKO MEFs; 5 μM, annexin V flow cytometry, Bax-Bak DKO MEFs
  cell death: ~80%
HeLa cancer cells
  autophagic marker LC3-II conversion: induced
